The structures appear in SMILES notation.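 Step 1: Grow cells in 96-well plates. Step 2: Expose to compound for 48 hours at 5 concentrations. Step 3: Interpolate endpoints linearly; if unreached, use highest concentration. GI50: concentration for 50% inhibition of growth.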 The source made the active and inactive calls. Cut-off read from the data, not from the text of the source: active = GI50 up to about 1.1 µM and inactive = higher. Starred links: 1 amine or outer side, 2 acyl side, 3 side chain; linkers in the order of their positions; H or OH if unused. Non-standard residues stand in square brackets, D forms with d. Residues, ends and D or L forms follow the SMILES beside them. X41 = CSCCCC(N[*:1])C(=O)[*:2] Bounds are passed on as bounds.

The source of these data is ChEMBL document CHEMBL1201862, “PubChem BioAssay data set” (2004).

Test systems include 786-0; CCRF-CEM; HCT-15; HOP-92; Hs-578T; IGROV-1; KM12; MCF7; MDA-N; NCI-H226; NCI-H23; NCI-H460; OVCAR-3; OVCAR-8; RPMI-8226; SK-MEL-2; SN12C; UO-31.
What all share (test): NCI-60 cell line screen, 48 h

As for `CC(=O)CCNc1ccc(-c2cc(-c3ccc(N(C)C)cc3)nc3ccc4ccccc4c23)cc1`, the GI50 in the assay on 786-0 is 22.4 µM (inactive); with CCRF-CEM, 8.07 µM (inactive); in the assay on HCT-15, 49.7 µM; with HOP-92 it was 79.3 µM (inactive); in the assay with Hs-578T it was 39.2 µM (inactive); in the assay on IGROV-1, 14.5 µM (inactive). In addition, the GI50 with KM12 is 27.5 µM (inactive); with MCF7 it was 27.1 µM (inactive); with MDA-N it was > 100 µM (inactive); in the assay with NCI-H226, > 41.5 µM (inactive); with NCI-H23, > 100 µM (inactive); with NCI-H460, 35.2 µM (inactive). Further, the GI50 in the assay with OVCAR-3 was 44.8 µM (inactive); in the assay with OVCAR-8, > 100 µM (inactive); in the assay with RPMI-8226, 11.7 µM (inactive); in the assay with SK-MEL-2 it was 51.1 µM (inactive); in the assay on SN12C, 33.5 µM (inactive); with UO-31, 23.5 µM (inactive).
For `C=C(C)[C@H]1C2=CC(C(=O)OC)=C(C[C@H](C(=C)C)[C@@H](O)[C@@H](O)C3=C[C@H]1OC3=O)O2`, the GI50 is > 100 µM (inactive) with 786-0; 87.9 µM (inactive) with CCRF-CEM; 59.8 µM in the assay on HCT-15; 65.5 µM (inactive) with HOP-92; > 100 µM (inactive) with Hs-578T; 80.2 µM (inactive) in the assay on IGROV-1. Further, the GI50 in the assay with KM12, in the assay with MCF7, in the assay with MDA-N, in the assay on NCI-H226, in the assay on NCI-H23 and in the assay with OVCAR-3 was > 100 µM (inactive) in each case. Besides, the GI50 is > 100 µM (inactive) in the assay with OVCAR-8; > 100 µM (inactive) with RPMI-8226; > 100 µM (inactive) in the assay on SK-MEL-2; > 100 µM (inactive) with SN12C; 18 µM (inactive) in the assay on UO-31.
Consider `O=C1NC(N2CCOCC2)=N/C1=C\c1ccc(Cl)cc1`, for which the GI50 in the assay with 786-0 is > 100 µM (inactive); in the assay with CCRF-CEM, > 100 µM (inactive); with HCT-15, above 100 µM; in the assay on HOP-92, > 100 µM (inactive); with Hs-578T, > 100 µM (inactive); in the assay on IGROV-1 it was > 100 µM (inactive). For the same compound, the GI50 with KM12, in the assay on MCF7, with MDA-N, in the assay with NCI-H226, in the assay on NCI-H23 and in the assay on OVCAR-3 was > 100 µM (inactive) each time. Moreover, the GI50 with OVCAR-8, with RPMI-8226, with SK-MEL-2, in the assay with SN12C and in the assay with UO-31 was > 100 µM (inactive) in each case.
`NC1=NC(c2ccc(Cl)cc2)N(c2ccc(S(=O)(=O)Nc3ncccn3)cc2)C(N)=N1` (centres undefined): the GI50 is > 100 µM (inactive) in the assay with 786-0; > 100 µM (inactive) in the assay on CCRF-CEM; above 100 µM in the assay on HCT-15; > 100 µM (inactive) in the assay on HOP-92; > 100 µM (inactive) in the assay with Hs-578T; > 100 µM (inactive) in the assay on IGROV-1. The GI50 in the assay with KM12, in the assay on MCF7, in the assay with MDA-N, with NCI-H226, with NCI-H23 and in the assay on NCI-H460 was > 100 µM (inactive) each time. Besides, the GI50 in the assay on OVCAR-3, in the assay on OVCAR-8, with RPMI-8226, in the assay with SK-MEL-2, with SN12C and with UO-31 was > 100 µM (inactive) in each case.
`Cc1ccc(N/N=C2\C3=C(CCC(C)(C)O3)C(=O)c3ccccc32)cc1`: the GI50 in the assay on 786-0 is 28 µM (inactive); in the assay on CCRF-CEM, 15.1 µM (inactive); in the assay with HCT-15, 27.5 µM; in the assay with HOP-92, 43.5 µM (inactive); in the assay on Hs-578T it was 11.6 µM (inactive); in the assay with IGROV-1, 29.1 µM (inactive). For the same compound, the GI50 is 21.8 µM (inactive) with KM12; 13.7 µM (inactive) in the assay with MCF7; 4.43 µM (inactive) in the assay on MDA-N; 35.2 µM (inactive) in the assay with NCI-H226; 10.8 µM (inactive) with NCI-H23; 17.4 µM (inactive) in the assay on NCI-H460. Also, the GI50 with OVCAR-3 is 24.2 µM (inactive); in the assay with OVCAR-8, 34.4 µM (inactive); in the assay on RPMI-8226, 26.5 µM (inactive); with SK-MEL-2 it was 18.9 µM (inactive); in the assay with SN12C, 14.6 µM (inactive); with UO-31, 23.4 µM (inactive).
Regarding `CSCCCC(NC(=O)CNC(=O)C1CCCN1C(=O)C(Cc1ccc(O)cc1)NC(=O)C(Cc1ccccc1)NC(=O)C(CCCNC(=N)N)NC(=O)C(CC(=O)O)NC(=O)C1CCCN1C(=O)C(CC(=O)O)NC(=O)C1CCCN1C(=O)C1CCCN1C(=O)CN)C(N)=O` (centres undefined) (H-GPPDPDRFYPG[X41]-NH2; configuration not given here), the GI50 is > 50 µM (inactive) in the assay on 786-0; > 50 µM (inactive) in the assay with CCRF-CEM; above 50 µM in the assay with HCT-15; > 50 µM (inactive) in the assay on HOP-92; > 50 µM (inactive) in the assay with Hs-578T; > 50 µM (inactive) with IGROV-1. Besides, the GI50 in the assay on KM12, in the assay on MCF7, with MDA-N, in the assay on NCI-H226, in the assay on NCI-H23 and with OVCAR-3 was > 50 µM (inactive) each time. Besides, the GI50 in the assay on OVCAR-8, with RPMI-8226, in the assay on SK-MEL-2, in the assay with SN12C and with UO-31 was > 50 µM (inactive) in each case.
Turning to `O=C(OCCC12CC3CC(CC(C3)C1)C2)c1ccc(NCc2cc(O)ccc2O)cc1`, the GI50 in the assay on 786-0 is 1.28 µM (inactive); with CCRF-CEM it was 0.101 µM (active); in the assay with HCT-15, 0.611 µM; in the assay with HOP-92, 3.74 µM (inactive); in the assay on Hs-578T it was 0.213 µM (active); with IGROV-1, 0.0547 µM (active). Further, the GI50 in the assay with KM12 was 0.69 µM (active); with MCF7, 0.557 µM (active); in the assay on MDA-N it was 1.36 µM (inactive); in the assay on NCI-H226, 2.92 µM (inactive); in the assay on NCI-H23, 0.689 µM (active); in the assay with NCI-H460 it was 1.51 µM (inactive). For the same compound, the GI50 with OVCAR-3 is 0.239 µM (active); in the assay with RPMI-8226 it was 0.172 µM (active); with SK-MEL-2, 1.24 µM (inactive); with SN12C, 0.719 µM (active); in the assay with UO-31, 0.376 µM (active).
As for `CC1Cn2c(nc3ccccc32)NC1=O` (centres undefined), the GI50 is > 100 µM (inactive) with 786-0; > 100 µM (inactive) in the assay on CCRF-CEM; above 100 µM in the assay with HCT-15; > 100 µM (inactive) in the assay with HOP-92; > 100 µM (inactive) in the assay with Hs-578T; > 100 µM (inactive) with IGROV-1. Also, the GI50 in the assay on KM12, with MCF7, in the assay on MDA-N, in the assay with NCI-H226, in the assay on NCI-H23 and with NCI-H460 was > 100 µM (inactive) throughout. Moreover, the GI50 in the assay on OVCAR-3, with OVCAR-8, in the assay with RPMI-8226, with SK-MEL-2 and in the assay on UO-31 was > 100 µM (inactive) throughout.
